Like-named read-outs stand apart in the source and are kept apart here.
Tested on: fungus F. oxysporum
Test: microbe, parasite or virus in culture
Type: cell-based
Conditions: for inhibition at 2000 µg/mL / inhibition at 5000 µg/mL / inhibition at 7500 µg/mL / inhibition at 10000 µg/mL: Fusarium oxysporum
Protocol: The % of inhibition is calculated with respect to the control based on the areas of growth of the fungus according to the following equation: % of inhibition with respect to FOM = 100−((AP)/(AC)*100) [formula] wherein: • AP: area of growth of the fungus in the target dish. • AC: Area of growth of the fungus in the control dish.

[1] = Concentration 2 g/L, Table 4 concentration screening, read-out: Percentages of inhibition
[2] = Concentration 5 g/L, Table 4 concentration screening, read-out: Percentages of inhibition
[3] = Concentration 7.5 g/L, Table 4 concentration screening, read-out: Percentages of inhibition
[4] = Concentration 10 g/L, Table 4 concentration screening, read-out: Percentages of inhibition
[5] = solution at 5 g/L, Table 3, read-out: % of inhibition

N[C@@H](Cc1ccccc1)C(=O)O [Phenylalanine, L-Phenylalanine]
inhibition at 2000 µg/mL [1]: 17 ± 2.24%
inhibition at 5000 µg/mL [2]: 19.5 ± 1.85%
inhibition at 7500 µg/mL [3]: 19.2 ± 1.65%
inhibition at 10000 µg/mL [4]: 21.7 ± 1.74%
inhibition at 5000 µg/mL [5]: 16.1 ± 1.05%

O=C[O-].[Na+] [Sodium formate]
Percentages of inhibition (Concentration 2 g/L, Table 4 concentration screening): 5.66 ± 0.41
Percentages of inhibition (Concentration 5 g/L, Table 4 concentration screening): 12.33 ± 0.98
Percentages of inhibition (Concentration 7.5 g/L, Table 4 concentration screening): 12.54 ± 1.54
Percentages of inhibition (Concentration 10 g/L, Table 4 concentration screening): 12.14 ±0.52
% of inhibition (solution at 5 g/L, Table 3): 13.38 ± 0.95%

N.O=CO [Ammonium formate]
% of inhibition (solution at 5 g/L, Table 3): 1.54 ± 0.15%

C[C@H](N)C(=O)O [Alanine, L-Alanine]
inhibition at 2000 µg/mL [1]: 9.24 ± 0.85%
inhibition at 5000 µg/mL [2]: 9.48 ± 1.06%
inhibition at 7500 µg/mL [3]: 13.3 ± 1.01%
inhibition at 10000 µg/mL [4]: 14.4 ± 0.87%
inhibition at 5000 µg/mL [5]: 9.23 ± 0.71%

OCC(O)CO [Glycerol]
inhibition at 5000 µg/mL [5]: 1.85 ± 0.1%

CC(=O)O [Sodium acetate, Anhydrous sodium acetate]
inhibition at 5000 µg/mL (read-out: % of inhibition): 1.54 ± 0.05%

CCO [Ethanol]
inhibition at 5000 µg/mL (read-out: % of inhibition): 3.07 ± 0.45%
